Measurements taken from patent US10770169B2, “Method of providing a treatment to a subject based on a dynamic pathway map” (THE REGENTS OF THE UNIVERSITY OF CALIFORNIA, priority 2010, dated 2020).

Test system: panel of 55 breast cancer cell lines
Assay: Cell growth inhibition assay (Cell Titer Glo, 72 h, 9 doses; GI50, TGI, LC50)
Assay type: cell-based, human
Details: value is the negative log10 of mol/L
[1] = AU565 cell line, censored GI50 values
[2] = BT474 cell line, censored GI50 values
[3] = CAMA1 cell line, censored GI50 values
[4] = HCC1143 cell line, censored GI50 values
[5] = HCC1187 cell line, censored GI50 values
[6] = HCC1395 cell line, censored GI50 values
[7] = HCC1419 cell line, censored GI50 values
[8] = HCC1428 cell line, censored GI50 values
[9] = HCC1500 cell line, censored GI50 values

O=C1C(Cl)=C(NCCN2CCOCC2)C(=O)c2ncccc21 [NSC 663284]
GI50 (600MPE cell line, censored GI50 values): 5.34
GI50 [1]: 5.81
GI50 (BT20 cell line, censored GI50 values): 5.48
GI50 [2]: 5.56
GI50 (BT483 cell line, censored GI50 values): 6.02
GI50 [3]: 5.58
GI50 [4]: 5.70
GI50 [5]: 5.68
GI50 [6]: 6.16
GI50 [7]: 5.72
GI50 [8]: 5.59
GI50 [9]: 5.42
GI50 (HCC1937 cell line, censored GI50 values): 6.07
GI50 (HCC1954 cell line, censored GI50 values): 5.22
GI50 (cell line 600MPE): 5.34
GI50 (cell line AU565): 5.81
GI50 (cell line BT20): 5.48
GI50 (cell line BT474): 5.56
GI50 (cell line BT483): 6.02
GI50 (cell line CAMA1): 5.58
GI50 (cell line HCC38): 5.64
GI50 (cell line HCC70): 5.51
GI50 (cell line HCC1143): 5.70
GI50 (cell line HCC1187): 5.68
GI50 (cell line HCC1395): 6.16
GI50 (cell line HCC1419): 5.72
GI50 (cell line HCC1428): 5.59
GI50 (cell line HCC1500): 5.42
GI50 (cell line HCC1937): 6.07
GI50 (cell line HCC1954): 5.22
GI50 (cell line HCC2185): 5.96
GI50 (cell line HCC3153): 5.73
GI50 (cell line LY2): 6.27
GI50 (cell line MCF7): 5.43
GI50 (cell line MDAMB134V): 5.24
GI50 (cell line MDAMB175V): 5.22
GI50 (cell line MDAMB361): 5.14
GI50 (cell line MDAMB415): 5.59
GI50 (cell line MDAMB453): 5.26
GI50 (cell line MDAMB468): 5.19
GI50 (cell line SKBR3): 5.86
GI50 (cell line SUM52PE): 5.61
GI50 (cell line SUM149PT): 5.74
GI50 (cell line SUM159PT): 5.64
GI50 (cell line SUM185PE): 6.50
GI50 (cell line SUM225CWN): 5.66
GI50 (cell line SUM1315MO): 6.00
GI50 (cell line T47D): 5.19
GI50 (cell line UACC812): 5.43
GI50 (cell line ZR75B): 5.26
GI50 (cell line ZR751): 5.73

NS(=O)(=O)c1ccc(Nc2nc(OCC3CCCCC3)c3[nH]cnc3n2)cc1 [NU6102]
GI50 [1]: 4.64
GI50 [2]: 4.56
GI50 [3]: 4.91
GI50 [4]: 4.87
GI50 [5]: 5.11
GI50 [6]: 5.24
GI50 [7]: 4.54
GI50 [8]: 4.87
GI50 [9]: 4.78
GI50 (HCC1806 cell line, censored GI50 values): 4.64
GI50 (cell line AU565): 4.64
GI50 (cell line BT20): 4.23
GI50 (cell line BT474): 4.56
GI50 (cell line BT483): 4.18
GI50 (cell line CAMA1): 4.91
GI50 (cell line HCC38): 5.03
GI50 (cell line HCC70): 4.69
GI50 (cell line HCC1143): 4.87
GI50 (cell line HCC1187): 5.11
GI50 (cell line HCC1395): 5.24
GI50 (cell line HCC1419): 4.54
GI50 (cell line HCC1428): 4.87
GI50 (cell line HCC1500): 4.78
GI50 (cell line HCC1806): 4.64
GI50 (cell line HCC1937): 4.27
GI50 (cell line HCC1954): 4.34
GI50 (cell line HCC2185): 4.85
GI50 (cell line HCC3153): 4.81
GI50 (cell line LY2): 4.32
GI50 (cell line MCF7): 4.39
GI50 (cell line MDAMB134V): 4.34
GI50 (cell line MDAMB175V): 4.26
GI50 (cell line MDAMB361): 4.77
GI50 (cell line MDAMB415): 4.46
GI50 (cell line MDAMB436): 4.28
GI50 (cell line MDAMB453): 4.91
GI50 (cell line MDAMB468): 4.85
GI50 (cell line SKBR3): 4.51
GI50 (cell line SUM52PE): 5.27
GI50 (cell line SUM149PT): 5.08
GI50 (cell line SUM159PT): 4.90
GI50 (cell line SUM185PE): 5.53
GI50 (cell line SUM225CWN): 4.30
GI50 (cell line SUM1315MO): 5.40
GI50 (cell line T47D): 4.82
GI50 (cell line UACC812): 4.42
GI50 (cell line ZR75B): 4.85
GI50 (cell line ZR751): 4.76
